Literature values, collected in US7285563B2, “Heteroaromatic urea derivatives as VR-1 receptor modulators for treating pain” (priority 2002, dated 2007).

Target: VR1 (Rattus norvegicus, UniProt O35433)
Sequence (O35433 whole entry): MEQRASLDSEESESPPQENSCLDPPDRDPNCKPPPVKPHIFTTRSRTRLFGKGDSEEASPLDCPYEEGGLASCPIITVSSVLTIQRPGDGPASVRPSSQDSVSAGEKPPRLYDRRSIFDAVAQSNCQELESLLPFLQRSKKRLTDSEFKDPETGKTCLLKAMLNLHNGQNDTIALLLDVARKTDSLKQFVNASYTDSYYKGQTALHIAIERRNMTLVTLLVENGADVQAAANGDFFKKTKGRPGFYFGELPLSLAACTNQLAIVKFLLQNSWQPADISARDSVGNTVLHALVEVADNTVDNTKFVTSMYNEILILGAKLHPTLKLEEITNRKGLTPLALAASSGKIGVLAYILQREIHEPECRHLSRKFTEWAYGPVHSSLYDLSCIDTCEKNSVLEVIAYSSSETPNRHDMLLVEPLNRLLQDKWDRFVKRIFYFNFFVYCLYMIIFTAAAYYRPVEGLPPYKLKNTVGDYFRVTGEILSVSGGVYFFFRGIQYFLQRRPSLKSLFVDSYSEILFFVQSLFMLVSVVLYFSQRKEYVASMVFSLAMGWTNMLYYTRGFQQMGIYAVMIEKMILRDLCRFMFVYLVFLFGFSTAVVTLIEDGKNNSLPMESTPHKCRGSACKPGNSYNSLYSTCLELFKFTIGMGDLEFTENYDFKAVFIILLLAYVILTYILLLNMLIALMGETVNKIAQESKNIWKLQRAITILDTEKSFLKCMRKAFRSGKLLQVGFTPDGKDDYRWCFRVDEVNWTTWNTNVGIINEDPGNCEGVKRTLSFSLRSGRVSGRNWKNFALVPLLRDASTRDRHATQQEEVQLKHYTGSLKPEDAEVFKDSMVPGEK

Row | affinity for VR1 (Walpole et al., J. Med. Chem., 37:1942, 1994) | SMILES | antagonist of VR1 (Wahl et al., Mol. Pharmacol., 59:9, 2001)
1 | – | C=C(C)[C@]12C[C@@H](C)[C@@]34O[C@](Cc5ccccc5)(O[C@@H]1[C@@H]3C=C(COC(=O)Cc1cc(I)c(O)c(OC)c1)C[C@]1(O)C(=O)C(C)=C[C@@H]41)O2 [Iodo-resiniferatoxin] | nanomolar antagonist
2 | micromolar affinity | Oc1cc2c(cc1O)CN(C(=S)NCCc1ccc(Cl)cc1)CCC2 [capsazepine] | –
